Data on seven molecules can be found in ChEMBL document CHEMBL2016556, “Discovery of novel P3-oxo inhibitor of hepatitis C virus NS3/4A serine protease” (Bioorg Med Chem Lett, 2012).

Data set [1] in a line: Inhibition of Hepatitis C virus genotype 1a NS3/4A protease using Ac-DE-Dap(QXL520)-EE-Abu-psi-COO]-AS-C(5-FAMsp)-NH2 as substrate by FRET analysis. The arrangement: species or system Hepatitis C virus subtype 1a.
The test system of data set [2] is Hepatitis C virus. The data set is described as follows: Antiviral activity against Hepatitis C virus genotype 1b infected in HuH7 cells. The format is functional, organism-based, Hepacivirus hominis. The following applies: Huh-7.
Data set [3] concerns Hepatitis C virus. Briefly: Antiviral activity against Hepatitis C virus genotype 1a infected in HuH7 cells. Format: functional, organism-based, Hepacivirus hominis. Particulars: subtype 1a, Huh-7.
The subject of data set [4] is Hepatitis C virus. Briefly: Antiviral activity against Hepatitis C virus genotype 1b expressing wild type NS3/4A protease infected in HuH7 cells. The format is functional, organism-based, Hepacivirus hominis. The following applies: Huh-7.
The test system of data set [5] is Hepatitis C virus. The data set is described as follows: Antiviral activity against Hepatitis C virus genotype 1b expressing NS3/4A protease A156S mutant infected in HuH7 cells. The format is functional, organism-based, Hepacivirus hominis. The following applies: Huh-7.
For data set [6], the system named is Hepatitis C virus. Briefly: Antiviral activity against Hepatitis C virus genotype 1b expressing NS3/4A protease A156T mutant infected in HuH7 cells. Format: functional, organism-based, Hepacivirus hominis. The following applies: Huh-7.
In data set [7] the test system is Hepatitis C virus. The data set is described as follows: Antiviral activity against Hepatitis C virus genotype 1b expressing NS3/4A protease A156V mutant infected in HuH7 cells. The format is functional, organism-based, Hepacivirus hominis. Particulars: Huh-7.
Data set [8] deals with Hepatitis C virus. Briefly: Antiviral activity against Hepatitis C virus genotype 1b expressing NS3/4A protease […] mutant infected in HuH7 cells. The format is functional, organism-based, Hepacivirus hominis. The following applies: Huh-7.
Data set [9] deals with Hepatitis C virus. The data set is described as follows: Antiviral activity against Hepatitis C virus genotype 1b expressing NS3/4A protease R155K mutant infected in HuH7 cells. The format is functional, organism-based, Hepacivirus hominis. The following applies: Huh-7.
The subject of data set [10] is Hepatitis C virus. The data set is described as follows: Antiviral activity against Hepatitis C virus genotype 1b expressing NS3/4A protease D168A mutant infected in HuH7 cells. Particulars: Hepacivirus hominis, Huh-7.
Data set [11] in a line: Apparent permeability of the compound at pH 7.05 by PAMPA assay. Format: ADME. In general terms: In PAMPA a lipid-coated filter parts donor from acceptor wells.
Data set [12] is described as follows: Oral bioavailability in rat. Format: ADME, organism-based. The following applies: in vivo.
The nature of data set [13]: Clearance in rat. The format is ADME, organism-based. The following applies: in vivo.

In general, IC50 refers to the concentration that inhibits the measured activity by half. A higher IC50 goes with lower potency. By EC50 is commonly meant the midpoint of the concentration-response curve. Usually Papp stands for a coefficient for how fast a substance crosses the barrier. One may read the bioavailability as the share of a dose that reaches the circulation, judged against a reference dose that is usually intravenous. The low end stands for poor availability, the high end for good availability. Usually clearance stands for the volume of plasma or blood freed of the substance per unit of time.

In [1], `COc1ccc2c(O[C@@H]3C[C@H]4C(=O)N[C@]5(C(=O)NS(=O)(=O)C6CC6)C[C@H]5/C=C\CCCCCC(OC(=O)NC(C)(C)C)C(=O)N4C3)cc(-c3nc(C(C)C)cs3)nc2c1C` (stereo not given in full) yielded an IC50 of 31 nM. Besides, the EC50 in the data set on Hepatitis C virus [2] was 0.8 nM; in the data set with Hepatitis C virus [3], 5 nM; in the data set with Hepatitis C virus [4] it was 1.2 nM; in the data set on Hepatitis C virus [5], 2.5 nM; in the data set with Hepatitis C virus [6], 84.6 nM; in the data set with Hepatitis C virus [7], 322 nM. For the same molecule, the EC50 in the data set on Hepatitis C virus [8] was found to be 1070 nM; in the data set on Hepatitis C virus [9] it was 324 nM; in the data set with Hepatitis C virus [10], 462 nM.

The molecule `CCOC1CCCCC/C=C\[C@@H]2C[C@@]2(C(=O)NS(=O)(=O)C2CC2)NC(=O)[C@@H]2C[C@@H](Oc3cc(-c4nc(C(C)C)cs4)nc4c(C)c(OC)ccc34)CN2C1=O` (stereo not given in full) came in with an IC50 in [1] of 107 nM. For the same molecule, the EC50 in the data set on Hepatitis C virus [2] was determined as 79.4 nM; with Hepatitis C virus [3], 251 nM; with Hepatitis C virus [4], 63.1 nM; in the data set with Hepatitis C virus [5], 29.4 nM; in the data set on Hepatitis C virus [6] it was 397 nM; with Hepatitis C virus [7] it was 434 nM. The values for the EC50 with Hepatitis C virus [8], in the data set on Hepatitis C virus [9] and with Hepatitis C virus [10] were 694 nM, 3980 nM and 514 nM, respectively.

Turning to `COc1ccc2c(O[C@@H]3C[C@H]4C(=O)N[C@]5(C(=O)NS(=O)(=O)C6CC6)C[C@H]5/C=C\CCCCCC(OC(=O)OC(C)(C)C)C(=O)N4C3)cc(-c3nc(C(C)C)cs3)nc2c1C` (stereo not given in full), in data set [1], inhibition was half-maximal at 195 nM (IC50). The EC50 in the data set on Hepatitis C virus [2] was found to be 39.8 nM; in the data set with Hepatitis C virus [3] it was 50.1 nM; in the data set with Hepatitis C virus [4], 63.1 nM.

Regarding `COc1ccc2c(O[C@@H]3C[C@H]4C(=O)N[C@]5(C(=O)NS(=O)(=O)C6CC6)C[C@H]5/C=C\CCCCCC(OC(=O)N5CCCCC5)C(=O)N4C3)cc(-c3nc(C(C)C)cs3)nc2c1C` (stereo not given in full), in [1], the IC50 stood at 56.2 nM. In addition, the EC50 was 3.2 nM with Hepatitis C virus [2]; 10 nM in the data set on Hepatitis C virus [3]; 7.1 nM with Hepatitis C virus [4]; 9.7 nM in the data set on Hepatitis C virus [5]; 90.2 nM in the data set on Hepatitis C virus [6]; 658 nM with Hepatitis C virus [7]. Moreover, the EC50 with Hepatitis C virus [8] was determined as 3980 nM; in the data set with Hepatitis C virus [9], 1480 nM; in the data set with Hepatitis C virus [10], 2150 nM.

For the molecule `COc1ccc2c(O[C@@H]3C[C@H]4C(=O)N[C@]5(C(=O)NS(=O)(=O)C6CC6)C[C@H]5/C=C\CCCCCC(O)C(=O)N4C3)cc(-c3nc(C(C)C)cs3)nc2c1C` (stereo not given in full), in data set [1], the midpoint of inhibition, the IC50, lay at 6.8 nM. The EC50 was determined as 0.8 nM in the data set with Hepatitis C virus [2]; 1 nM with Hepatitis C virus [3]; 1.3 nM in the data set on Hepatitis C virus [4]; 0.1 nM in the data set with Hepatitis C virus [5]; 2.6 nM with Hepatitis C virus [6]; 3.2 nM in the data set on Hepatitis C virus [7]. Besides, the EC50 in the data set on Hepatitis C virus [8] was 45.7 nM; in the data set with Hepatitis C virus [9] it was 60.3 nM; in the data set on Hepatitis C virus [10] it was 62.8 nM.

Molecule `COc1ccc2c(O[C@@H]3C[C@H]4C(=O)N[C@]5(C(=O)NS(=O)(=O)C6CC6)C[C@H]5/C=C\CCCCCC(OC(=O)n5ccnc5)C(=O)N4C3)cc(-c3nc(C(C)C)cs3)nc2c1C` (stereo not given in full) had an IC50 in data set [1] of 3.2 nM. Moreover, the concentration for a half-maximal effect (EC50) turned out to be 0.5 nM in the data set with Hepatitis C virus [2]; 0.8 nM with Hepatitis C virus [3]; 0.5 nM in the data set on Hepatitis C virus [4]; 0.1 nM in the data set with Hepatitis C virus [5]; 2.8 nM in the data set with Hepatitis C virus [6]; 3.9 nM in the data set with Hepatitis C virus [7]. Besides, the results for the concentration giving a half-maximal response (EC50) in the data set on Hepatitis C virus [8], in the data set with Hepatitis C virus [9] and in the data set on Hepatitis C virus [10] were 151 nM, 47.9 nM and 70 nM, respectively. For the same molecule, in data set [11], the Papp came to 1.2 ×10⁻⁶ cm/s. The same molecule had a bioavailability in data set [12] of 12%. In data set [13], this molecule had a clearance of 53.7 mL/min/kg.

For the molecule `CC(C)(C)OC(=O)N[C@H]1CCCCC/C=C\[C@@H]2C[C@@]2(C(=O)NS(=O)(=O)C2CC2)NC(=O)[C@@H]2C[C@@H](OC(=O)N3Cc4cccc(F)c4C3)CN2C1=O` [DANOPREVIR], half-maximal inhibition in data set [1] (IC50) required 0.4 nM. Also, the concentration giving a half-maximal response (EC50) in the data set with Hepatitis C virus [4] came out at 0.1 nM; with Hepatitis C virus [5], 1.6 nM; with Hepatitis C virus [6] it was 6.8 nM; in the data set on Hepatitis C virus [7], 8.3 nM; with Hepatitis C virus [8], 24.5 nM; in the data set on Hepatitis C virus [9], 80.8 nM. The molecule further gave an EC50 in the data set on Hepatitis C virus [10] of 48.5 nM.
